Results published in patent publication US12077607B2, “Functional and therapeutic effects of PAR4 cleavage by cathepsin G” (UNIVERSITY OF UTAH RESEARCH FOUNDATION, priority 2021, dated 2024).
No end group written: not given here.

Assays:
washed platelets [1] = assay: Platelet activation by flow cytometry (PAC-1 binding, P-selectin); type: cell-based, human; conditions: 1 mM peptide vs buffer; washed platelets
Description: (§1) Platelet isolation, aggregation, and activation. Human washed platelets were prepared and resuspended in Tyrode's Buffer at 2×10^8/mL as described (Edelstein et al., Nat Med. 2013; 19(12):1609-1616). For human and dog platelet comparisons, platelets were prepared using a modified human platelet protocol with final concentrations of […] (Cayman Chemical, Ann Arbor, MI, USA) used during centrifugation steps. Centrifugations after Tyrode's washes was decreased to 1,250×g as described in Cremer et al., PLOS One. 2019; 14(11): e0224891. Platelet aggregation was measured under stirring conditions at 37° C. using a PAP-8E aggregometer after treatment with the following agonists: arachidonic acid (Bio/Data Corporation, Horsham, PA, USA), cathepsin G, elastase, proteinase 3 (Athens Research Group), α-thrombin (Sigma, St. Louis, MO, USA), PAR-1 peptide (SFLLRN) (GL Biochem, China). P-selectin and PAC-1 were measured as previously described (Yee et al., J Thromb Haemost. 2006; 4(9):2043-2050; Tourdot et al., Arterioscler Thromb Vasc Biol. 2014; 34(12):2644-2650).
(§2) GYPGQV-NH2 (SEQ ID NO: 5), RALLLGWVPTR-NH2 (SEQ ID NO: 1), ALLLGWVPTR-NH2 (SEQ ID NO: 2), RALLLG-NH2 (SEQ ID NO: 4). Peptides were synthesized by BIOMATIK (Wilmington, DE, USA) at similar purities. All peptides were suspended in 50% DMSO and 50% ethanol. To measure platelet activation, washed platelets were stimulated with various concentrations of the peptide in the presence of CD41-APC, P-selectin (PE) and PAC-1 (FITC) for 15 minutes at 37° C. and then fixed with FACS Lysis Buffer. Samples were immediately run on a Cytoflex flow cytometer. In some experiments, platelets were stimulated with peptides and platelet aggregation performed as described above. Platelet calcium flux was induced by RALLLGWVPTR (2 mM; SEQ ID NO: 1), CatG (500 nM), ALLLGWVPTR (2 mM; SEQ ID NO: 2) or tyrodes buffer and monitored as described above.

washed platelets [2] = assay: Platelet calcium flux assay; type: cell-based, human; conditions: CatG 500 nM; for platelet calcium flux: peptides 2 mM, FURA2-AM loaded washed platelets
Description: Platelet calcium flux assay. Washed platelets were incubated at 37° C. for 1 hour in Tyrode's buffer (supplemented with pgel and heparin) with Fura-2AM (final concentration 2 μM). Platelets were washed and resuspended to a final concentration of 4×10^8/mL. Platelets were dispensed into a Costar 96-well half area clear bottom plate and placed in the Flexstation 3 (Molecular Devices) where cathepsin G (500 nM), buffer, or peptides (2 mM) were injected onto cells and calcium flux monitored.
as §2

rat washed platelets = assay: Platelet aggregation of rat washed platelets; type: cell-based; conditions: 1 U/mL human thrombin, 1 μM human CatG or 1 mM RA-11mer
Description: (§3) Platelet and neutrophil isolation. Platelets and neutrophils were isolated as previously described (Yost et al., J Clin Invest. 2016; 126(10):3783-3798). Platelet isolation from dogs, rats and mice was approved by the IACUC. Platelet activation and aggregation were performed as previously described (Manne et al., Blood. 2020; 136(11): 1317-1329).
as §1

WT human PAR4 (hPAR4) = target: T1, WT human PAR4 (hPAR4) (Homo sapiens, UniProt Q96RI0); assay: PAR4 calcium flux assay in HEK293T/17 cells expressing WT PAR4; type: cell-based; conditions: 1.5 mM peptide; HEK293T/17 cells
T1 construct: Flag; expressed in transfected cells; host or cells: HEK293T/17 (ATCC CRL-11268)
T1 sequence (Q96RI0 18-385): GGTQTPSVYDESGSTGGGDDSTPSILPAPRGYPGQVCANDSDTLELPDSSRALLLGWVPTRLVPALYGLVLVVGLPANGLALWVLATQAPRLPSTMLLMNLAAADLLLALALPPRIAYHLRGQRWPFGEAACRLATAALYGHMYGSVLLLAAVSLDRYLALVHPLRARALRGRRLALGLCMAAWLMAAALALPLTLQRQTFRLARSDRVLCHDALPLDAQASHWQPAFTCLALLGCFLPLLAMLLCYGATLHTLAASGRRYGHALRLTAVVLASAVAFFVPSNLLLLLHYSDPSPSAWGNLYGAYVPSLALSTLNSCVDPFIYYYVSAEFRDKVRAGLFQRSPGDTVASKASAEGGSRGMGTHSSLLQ
Description: PAR4 calcium flux assays. PAR4-dependent calcium flux was measured using Fura2-QBT in platelets and HEK293T/17 cells with wild-type (WT) and mutant PAR4 (Tourdot et al., Arterioscler Thromb Vasc Biol. 2014; 34(12):2644-2650).
PAR4 mutant calcium flux assays. Using Quikchange Lightning Site-Directed mutagenesis (Agilent) per manufacturing instructions, pCMV-Flag-PAR4-S66E, pCMV-Flag-PAR4-S67E, and pCMV-Flag-PAR4-R68E were generated from mutation of pCMV-Flag-PAR4 and confirmed by sequencing (University of Utah DNA Sequencing Core). Prior to transfection, HEK293T/17 cells (ATCC CRL-11268) were seeded at 4.5×10^4/mL. The following day, cells were transfected with the plasmid of interest using Lipofectamine 2000 (Invitrogen, Carlsbad, CA, USA). Twenty-four hours after transfection, media was removed and replaced with Optimem w/Glutamax (Gibco, Carlsbad, CA, USA) containing vorapaxar (100 nM) (Cayman Chemical, Ann Arbor, MI, USA) and Fura2-QBT (Molecular Devices). Following incubation for 1 hour at 37° C., plate was placed in the Flexstation 3 (Molecular Devices) where agonists, Tyrode's Buffer, cathepsin G (2.5 μM), or α-thrombin (1.5 U/mL), were injected onto cells and calcium mobilization was monitored and recorded.

mouse washed platelets = assay: Platelet aggregation of mouse washed platelets; type: cell-based; conditions: 1 U/mL human thrombin, 1 μM human CatG or 1 mM RA-11mer
Text: (§4) Animal studies. Mouse platelets were isolated as previously described from C57BL/6 mice (Denorme et al., Blood. 2020; 135(6):429-440). Dog platelets were isolated from whole blood drawn into ACD using a similar isolation procedure as for human platelets. All animal studies were approved by the University of Utah Institutional Animal Care and Use Committee (18-10012).
as §3, §1

washed platelets [3] = assay: Platelet aggregation of human washed platelets; type: cell-based; conditions: for peptide concentration producing maximal platelet aggregation / platelet aggregation induced by peptide: washed platelets; for platelet aggregation induced by peptide: 1 mM peptide (RA-6mer 1 mM or 10 mM; AL-10mer independent of concentration)
Description: as §1, §2

dog washed platelets = assay: Platelet aggregation of dog washed platelets; type: cell-based; conditions: 1 U/mL human thrombin, 1 μM human CatG or 1 mM RA-11mer
Text: as §4, §3, §1

[4] = Ability of peptide to go into solution; type: physicochemical; conditions: numerous attempts with different solvents
Text: Having said that, perhaps the hydrophobic portion of the C-terminus of RALLLGWVPTR (SEQ ID NO: 1) stabilizes the tethered ligand on the platelet plasma membrane.

PAR-1 = target: T2, PAR-1 (Homo sapiens, UniProt P25116); assay: Antagonist study: PAR-1 inhibitor in platelet aggregation; type: cell-based; conditions: 100 nM VPX
T2 construct: endogenous in cells; host or cells: human washed platelets
T2 sequence (P25116 22-425): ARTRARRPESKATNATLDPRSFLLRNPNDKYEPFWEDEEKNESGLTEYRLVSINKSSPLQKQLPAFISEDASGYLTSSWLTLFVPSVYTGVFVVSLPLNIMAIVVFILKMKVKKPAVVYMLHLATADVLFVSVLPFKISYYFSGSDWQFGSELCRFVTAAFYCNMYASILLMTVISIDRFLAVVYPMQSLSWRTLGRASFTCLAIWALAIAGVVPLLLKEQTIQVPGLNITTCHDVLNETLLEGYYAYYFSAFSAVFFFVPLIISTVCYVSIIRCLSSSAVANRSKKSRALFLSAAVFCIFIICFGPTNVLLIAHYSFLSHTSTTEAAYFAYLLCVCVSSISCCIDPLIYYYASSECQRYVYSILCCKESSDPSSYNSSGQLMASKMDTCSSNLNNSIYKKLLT
Description: Human washed platelets were prepared and resuspended in Tyrode's Buffer at 2×10^8/mL as described (Edelstein et al., Nat Med. 2013; 19(12):1609-1616). […] Platelet aggregation was measured under stirring conditions at 37° C. using a PAP-8E aggregometer after treatment with the following agonists: arachidonic acid (Bio/Data Corporation, Horsham, PA, USA), cathepsin G, elastase, proteinase 3 (Athens Research Group), α-thrombin (Sigma, St. Louis, MO, USA), PAR-1 peptide (SFLLRN) (GL Biochem, China).
Antagonist Studies. Washed platelets were incubated for 15 minutes at 37° C. with PAR-4 blocking antibody RC3 (100 μg/mL) (generous gift from Regeneron Pharmaceuticals; French et al., Blood Adv. 2018; 2(11): 1283-1293), PAR-1 inhibitor vorapaxar (100 nM), and/or PAR-4 inhibitor BMS-986120 (400 nM) (Cayman Chemical, Ann Arbor, MI, USA).

With “RALLLGWVPTR (RALLLGWVPTR-NH2) [synthetic peptide representing the CatG-generated PAR4 tethered ligand]” the “granule release (P-selectin expression)” value (washed platelets [1]) was “increased”, the “integrin activation (PAC-1 binding)” value (washed platelets [1]) was “increased” and the “peak platelet calcium flux, CatG compared with RALLLGWVPTR” value (washed platelets [2]; RA-11mer 2 mM) was “similar”. For the same compound, the platelet calcium flux (washed platelets [2]) was “significant and sustained calcium flux”, the “platelet aggregation, species comparison: rats” value (rat washed platelets) was “induced aggregation only in humans and dogs” and the “calcium flux in HEK cells transfected with WT PAR4 compared with mock” value (WT human PAR4 (hPAR4)) was “induced calcium flux”. For the same compound, the “platelet aggregation, species comparison: mice” value (mouse washed platelets) was “induced aggregation only in humans and dogs”, the “platelet aggregation, species comparison: humans” value (washed platelets [3]; 1 U/mL human thrombin, 1 μM human CatG or 1 mM RA-11mer) was “induced aggregation” and the “potency as activator of PAR4, comparison” value (washed platelets [3]; from platelet aggregation data) was “more potent activator of PAR4 than the thrombin-generated tethered ligand”. The “peptide concentration producing maximal platelet aggregation” value (washed platelets [3]) was 1 mM, the “platelet aggregation induced by peptide” value (washed platelets [3]) was “increased” and the “platelet aggregation, species comparison: dogs” value (dog washed platelets) was “induced aggregation”.
With “RALLLGWV [RALLLGWV 8mer, 8-mer PAR4 Tethered Ligand Fragment, intermediate length peptide]” the “ability to go into solution” value [4] was “inability to go into solution”.
In the case of “RALLLG-NH2 [6mer from the CatG tethered ligand]”, the “platelet aggregation induced by peptide” value (washed platelets [3]) is reported as “not able to induce platelet aggregation”.
In the case of “GYPGQV-NH2 [the thrombin-generated PAR4 tethered ligand, reference compound]”, the “peptide concentration producing maximal platelet aggregation” value (washed platelets [3]) is reported as 6 mM.
In the case of “ALLLGWVPTR (ALLLGWVPTR-NH2) [10-mer PAR4 Tethered Ligand Fragment]”, the platelet calcium flux (washed platelets [2]) is reported as “no discernable” and the “platelet aggregation induced by peptide” value (washed platelets [3]) is reported as “no discernable platelet aggregation”.
In the case of `CCOC(=O)N[C@@H]1CC[C@@H]2[C@@H](C1)C[C@H]1C(=O)O[C@H](C)[C@H]1[C@H]2/C=C/c1ccc(-c2cccc(F)c2)cn1` [VPX, vorapaxar], the “effect on thrombin-induced platelet aggregation” value (PAR-1; 0.1 U/mL thrombin) is reported as “abolished” and the “effect on PAR1 activation by PAR1 activation peptide” value (PAR-1; SFLLRN 10 μM) is reported as “efficiently ablated PAR1 activation”.
